21 compounds from patent publication US11390604B2 (Hoffmann-La Roche Inc., priority 2019, dated 2022) can be followed below.

The experiment deals with Acinetobacter baumannii ATCC 17961. The experiment can be described thus: Antimicrobial susceptibility testing: 90% growth inhibitory concentration (IC90) determination. The settings on record: ATCC17961, Acinetobacter baumannii ATCC 17961, Iso-Sensitest broth, read-out: ATCC 17961 IC90. The experiment is classed as cell-based. How it is done:
Antimicrobial Susceptibility Testing:
90% Growth Inhibitory Concentration (IC90) Determination
The in vitro antimicrobial activity of the compounds was determined according to the following procedure:
The assay used a 10-points Iso-Sensitest broth medium to measure quantitatively the in vitro activity of the compounds against Acinetobacter baumannii ATCC 17961.
Stock compounds in DMSO were serially twofold diluted (e.g. range from 50 to 0.097 μM final concentration) in 384 wells microtiter plates and inoculated with 49 μl the bacterial suspension in Iso-Sensitest medium to have a final cell concentration of ˜5×10^(5) CFU/ml in a final volume/well of 50 ul/well. Microtiter plates were incubated at 35±2° C.
Bacterial cell growth was determined with the measurement of optical density at X=600 nm each 20 minutes over a time course of 16 h. Growth inhibition was calculated during the logarithmic growth of the bacterial cells with determination of the concentration inhibiting 50% (IC50) and 90% (IC90) of the growth.
Table 1 provides the 90% growth inhibitory concentrations (IC90) in micromoles per liter of the compounds of present disclosure obtained against the strain Acinetobacter baumannii ATCC 17961.

Where a name gives a salt, the structure may show the parent alone.

Take `Cn1c(-c2cn(C3CCC3)nc2C(F)(F)F)cnc1C(=O)Nc1ccc(C(=O)N2CCN(C(=O)C3CCNCC3)CC2)c(Cl)c1` [Example 10, N-(3-chloro-4-(4-(piperidine-4-carbonyl)piperazine-1-carbonyl)phenyl)-5-(1-cyclobutyl-3-(trifluoromethyl)-1H-pyrazol-4-yl)-1-methyl-1H-imidazole-2-carboxamide hydrochloride]: the IC90 (in general, the concentration at which the effect reaches the 90% level) was 0.339 µM. For the compound `Cn1c(-c2cn(CCF)nc2C(F)(F)F)cnc1C(=O)Nc1ccc(C(=O)N2CCN(C(=O)C3CCNCC3)CC2)c(Cl)c1` [Example 11, N-(3-chloro-4-(4-(piperidine-4-carbonyl)piperazine-1-carbonyl)phenyl)-5-(1-(2-fluoroethyl)-3-(trifluoromethyl)-1H-pyrazol-4-yl)-1-methyl-1H-imidazole-2-carboxamide hydrochloride], the IC90 was found to be 0.466 µM. On to `Cn1c(-c2cn(CC(F)F)nc2C(F)(F)F)cnc1C(=O)Nc1ccc(C(=O)N2CCN(C(=O)C3CCNCC3)CC2)c(Cl)c1` [Example 12, N-(3-chloro-4-(4-(piperidine-4-carbonyl)piperazine-1-carbonyl)phenyl)-5-(1-(2,2-difluoroethyl)-3-(trifluoromethyl)-1H-pyrazol-4-yl)-1-methyl-1H-imidazole-2-carboxamide hydrochloride], for which the IC90 was determined as 0.7 µM. With `C#CCn1cc(-c2cnc(C(=O)Nc3ccc(C(=O)N4CCN(C(=O)C5CCN(C)CC5)CC4)c(Cl)c3)n2C)c(C(F)(F)F)n1` [Example 13, N-(3-chloro-4-(4-(1-methylpiperidine-4-carbonyl)piperazine-1-carbonyl)phenyl)-1-methyl-5-(1-(prop-2-yn-1-yl)-3-(trifluoromethyl)-1H-pyrazol-4-yl)-1H-imidazole-2-carboxamide] the figure was 0.335 µM; with `CN1CCC(C(=O)N2CCN(C(=O)c3ccc(NC(=O)c4ncc(-c5c[nH]nc5C(F)(F)F)n4C)cc3Cl)CC2)CC1` [Example 14, N-[3-chloro-4-[4-(1-methylpiperidine-4-carbonyl)piperazine-1-carbonyl]phenyl]-1-methyl-5-[3-(trifluoromethyl)-1H-pyrazol-4-yl]imidazole-2-carboxamide], 0.516 µM. Next, `CN1CCC(C(=O)N2CCN(C(=O)c3ccc(NC(=O)c4ncc(-c5cn(CC#N)nc5C(F)(F)F)n4C)cc3Cl)CC2)CC1` [Example 15, N-(3-chloro-4-(4-(1-methylpiperidine-4-carbonyl)piperazine-1-carbonyl)phenyl)-5-(1-(cyanomethyl)-3-(trifluoromethyl)-1H-pyrazol-4-yl)-1-methyl-1H-imidazole-2-carboxamide]: 0.558 µM. Regarding `Cn1c(-c2cn(C3CS(=O)(=O)C3)nc2C(F)(F)F)cnc1C(=O)Nc1ccc(C(=O)N2CCN(C(=O)C3CCNCC3)CC2)c(Cl)c1` [Example 16, N-(3-chloro-4-(4-(piperidine-4-carbonyl)piperazine-1-carbonyl)phenyl)-5-(1-(1,1-dioxidothietan-3-yl)-3-(trifluoromethyl)-1H-pyrazol-4-yl)-1-methyl-1H-imidazole-2-carboxamide], the IC90 came to 1.36 µM. With `Cn1c(-c2cn(CC#CCN)nc2C(F)(F)F)cnc1C(=O)Nc1ccc(C(=O)N2CCN(C(=O)C3CCNCC3)CC2)c(Cl)c1` [Example 17, 5-(1-(4-aminobut-2-yn-1-yl)-3-(trifluoromethyl)-1H-pyrazol-4-yl)-N-(3-chloro-4-(4-(piperidine-4-carbonyl)piperazine-1-carbonyl)phenyl)-1-methyl-1H-imidazole-2-carboxamide dihydrochloride] the figure was 0.607 µM; with `COCC#CCn1cc(-c2cnc(C(=O)Nc3ccc(C(=O)N4CCN(C(=O)C5CCNCC5)CC4)c(Cl)c3)n2C)c(C(F)(F)F)n1` [Example 18, N-(3-chloro-4-(4-(piperidine-4-carbonyl)piperazine-1-carbonyl)phenyl)-5-(1-(4-methoxybut-2-yn-1-yl)-3-(trifluoromethyl)-1H-pyrazol-4-yl)-1-methyl-1H-imidazole-2-carboxamide hydrochloride], 0.419 µM. Next, `CCC#CCn1cc(-c2cnc(C(=O)Nc3ccc(C(=O)N4CCN(C(=O)C5CCNCC5)CC4)c(Cl)c3)n2C)c(C(F)(F)F)n1` [Example 19, N-(3-chloro-4-(4-(piperidine-4-carbonyl)piperazine-1-carbonyl)phenyl)-1-methyl-5-(1-(pent-2-yn-1-yl)-3-(trifluoromethyl)-1H-pyrazol-4-yl)-1H-imidazole-2-carboxamide hydrochloride]: 0.172 µM; `Cn1c(-c2cn(CC(N)=O)nc2C(F)(F)F)cnc1C(=O)Nc1ccc(C(=O)N2CCN(C(=O)C3CCNCC3)CC2)c(Cl)c1` [Example 20, 5-(1-(2-amino-2-oxoethyl)-3-(trifluoromethyl)-1H-pyrazol-4-yl)-N-(3-chloro-4-(4-(piperidine-4-carbonyl)piperazine-1-carbonyl)phenyl)-1-methyl-1H-imidazole-2-carboxamide formate]: 1.66 µM; `CN(C)C(=O)Cn1cc(-c2cnc(C(=O)Nc3ccc(C(=O)N4CCN(C(=O)C5CCNCC5)CC4)c(Cl)c3)n2C)c(C(F)(F)F)n1` [Example 21, N-(3-chloro-4-(4-(piperidine-4-carbonyl)piperazine-1-carbonyl)phenyl)-5-(1-(2-(dimethylamino)-2-oxoethyl)-3-(trifluoromethyl)-1H-pyrazol-4-yl)-1-methyl-1H-imidazole-2-carboxamide formate]: 1.87 µM. With `CC(C(N)=O)n1cc(-c2cnc(C(=O)Nc3ccc(C(=O)N4CCN(C(=O)C5CCNCC5)CC4)c(Cl)c3)n2C)c(C(F)(F)F)n1` (stereo not drawn) [Example 22, 5-(1-(1-amino-1-oxopropan-2-yl)-3-(trifluoromethyl)-1H-pyrazol-4-yl)-N-(3-chloro-4-(4-(piperidine-4-carbonyl)piperazine-1-carbonyl)phenyl)-1-methyl-1H-imidazole-2-carboxamide formate] the figure was 1.29 µM; with `Cn1c(-c2cn(CCn3cccn3)nc2C(F)(F)F)cnc1C(=O)Nc1ccc(C(=O)N2CCN(C(=O)C3CCNCC3)CC2)c(Cl)c1` [Example 23, 5-(1-(2-(1H-pyrazol-1-yl)ethyl)-3-(trifluoromethyl)-1H-pyrazol-4-yl)-N-(3-chloro-4-(4-(piperidine-4-carbonyl)piperazine-1-carbonyl)phenyl)-1-methyl-1H-imidazole-2-carboxamide formate], 1.42 µM.

For the compound `CC(C)NC(=O)Cn1cc(-c2cnc(C(=O)Nc3ccc(C(=O)N4CCN(C(=O)C5CCNCC5)CC4)c(Cl)c3)n2C)c(C(F)(F)F)n1` [Example 24, N-(3-chloro-4-(4-(piperidine-4-carbonyl)piperazine-1-carbonyl)phenyl)-5-(1-(2-(isopropylamino)-2-oxoethyl)-3-(trifluoromethyl)-1H-pyrazol-4-yl)-1-methyl-1H-imidazole-2-carboxamide formate], the IC90 was 0.981 µM. Regarding `COCCOCCn1cc(-c2cnc(C(=O)Nc3ccc(C(=O)N4CCN(C(=O)C5CCNCC5)CC4)c(Cl)c3)n2C)c(C(F)(F)F)n1` [Example 25, N-(3-chloro-4-(4-(piperidine-4-carbonyl)piperazine-1-carbonyl)phenyl)-5-(1-(2-(2-methoxyethoxy)ethyl)-3-(trifluoromethyl)-1H-pyrazol-4-yl)-1-methyl-1H-imidazole-2-carboxamide], the IC90 is 2.01 µM.

Take `Cn1c(-c2cn(C3CCN(C4CC4)C3=O)nc2C(F)(F)F)cnc1C(=O)Nc1ccc(C(=O)N2CCN(C(=O)C3CCNCC3)CC2)c(Cl)c1` (stereo not drawn) [Example 26, N-(3-chloro-4-(4-(piperidine-4-carbonyl)piperazine-1-carbonyl)phenyl)-5-(1-(1-cyclopropyl-2-oxopyrrolidin-3-yl)-3-(trifluoromethyl)-1H-pyrazol-4-yl)-1-methyl-1H-imidazole-2-carboxamide formate]: the IC90 was 1.91 µM. With `CC(C)Cn1cc(-c2cnc(C(=O)Nc3ccc(C(=O)N4CCN(C(=O)C5CCNCC5)CC4)c(Cl)c3)n2C)c(C(F)(F)F)n1` [Example 27, N-(3-chloro-4-(4-(piperidine-4-carbonyl)piperazine-1-carbonyl)phenyl)-5-(1-isobutyl-3-(trifluoromethyl)-1H-pyrazol-4-yl)-1-methyl-1H-imidazole-2-carboxamide], the IC90 is 0.531 µM. Next, `CNC(=O)Cn1cc(-c2cnc(C(=O)Nc3ccc(C(=O)N4CCN(C(=O)C5CCNCC5)CC4)c(Cl)c3)n2C)c(C(F)(F)F)n1` [Example 28, N-(3-chloro-4-(4-(piperidine-4-carbonyl)piperazine-l-carbonyl)phenyl)-1-methyl-5-(1-(2-(methylamino)-2-oxoethyl)-3-(trifluoromethyl)-1H-pyrazol-4-yl)-1H-imidazole-2-carboxamide formate]: 1.49 µM; `Cc1cc(NC(=O)c2ncc(-c3c[nH]nc3C(F)(F)F)n2C)ccc1C(=O)N1CCN(C(=O)C2CCNCC2)CC1` [Example 29, 1-Methyl-N-(3-methyl-4-(4-(piperidine-4-carbonyl)piperazine-1-carbonyl)phenyl)-5-(3-(trifluoromethyl)-1H-pyrazol-4-yl)-1H-imidazole-2-carboxamide dihydrochloride]: 1.45 µM; `Cc1cc(NC(=O)c2ncc(-c3cn(CC#N)nc3C(F)(F)F)n2C)ccc1C(=O)N1CCN(C(=O)C2CCNCC2)CC1` [Example 30, 5-(1-(cyanomethyl)-3-(trifluoromethyl)-1H-pyrazol-4-yl)-1-methyl-N-(3-methyl-4-(4-(piperidine-4-carbonyl)piperazine-1-carbonyl)phenyl)-1H-imidazole-2-carboxamide]: 0.867 µM.
